Data on 41 molecules can be found in patent US12421249B2, “Inhibitors of APOL1 and methods of using same” (Vertex Pharmaceuticals Incorporated, priority 2020, dated 2025).

The target in this test is T1, APOL1 (Homo sapiens, UniProt O14791).
T1 sequence (O14791 1-398 S342G/I384M): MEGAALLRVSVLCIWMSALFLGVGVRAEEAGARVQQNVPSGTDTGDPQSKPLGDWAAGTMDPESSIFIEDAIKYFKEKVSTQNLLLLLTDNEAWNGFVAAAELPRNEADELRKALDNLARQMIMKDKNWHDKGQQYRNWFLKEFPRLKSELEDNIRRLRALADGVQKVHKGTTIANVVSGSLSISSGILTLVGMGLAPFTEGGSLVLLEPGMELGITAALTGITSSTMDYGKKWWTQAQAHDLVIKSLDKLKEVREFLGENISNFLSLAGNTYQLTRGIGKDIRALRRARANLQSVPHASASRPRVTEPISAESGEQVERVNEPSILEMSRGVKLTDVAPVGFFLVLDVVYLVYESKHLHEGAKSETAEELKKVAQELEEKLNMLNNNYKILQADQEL
Put plainly: Multi-Tox Assay (MultiTox-Fluor Multiplex Cytotoxicity Assay in tet-inducible APOL1 T-REx-HEK293 cells; Table 46 does not say which APOL1 variant G0/G1/G2). Type of test: cell-based. Conditions: APOL1 variant not given; for IC50: IP50 = IC50 for cell proliferation.

The structures appear in SMILES notation.

As for `C[C@@H](CO)CCn1cc([C@@H]2CC3(C[C@H](C)N2)OCC(F)(F)c2cc(Cl)sc23)nn1` (stereo in doubt) [Compound 338], the IC90 is below 50 nM, the “Multi-Tox Assay Max Activity (%)” value was determined as 99.0% and the IC50 was below 50 nM. As for `C#C[C@@H]1C[C@]2(C[C@H](C)N1)OCCc1cc(Cl)sc12` [Compound 221, (2S,4S,6S)-2′-chloro-2-ethynyl-6-methyl-4′,5′-dihydrospiro[piperidine-4,7′-thieno[2,3-c]pyran]], the IC50 was below 50 nM. Still for that read-out and setting: to `C#C[C@@H]1C[C@]2(C[C@H](C)N1)OC[C@@H](O)c1cc(Cl)sc12` [Compound 222, (2′S,4S,6′S,7S)-2-chloro-2′-ethynyl-6′-methyl-spiro[4,5-dihydrothieno[2,3-c]pyran-7,4′-piperidine]-4-ol] belongs 50 to 500 nM. Same read-out and setting: to `C#C[C@@H]1C[C@]2(C[C@H](C)N1)OCC(F)(F)c1cc(Cl)sc12` [Compound 223, (2′S,6′S,7S)-2-chloro-2′-ethynyl-4,4-difluoro-6′-methyl-spiro[5H-thieno[2,3-c]pyran-7,4′-piperidine]] belongs above 500 nM; to `C[C@H]1C[C@@]2(C[C@@H](c3cn(Cc4ccc(CO)cc4)nn3)N1)OC[C@@H](O)c1cc(Cl)sc12` [Compound 224, (2′S,4S,6′S,7S)-2-chloro-2′-[1-[[4-(hydroxymethyl)phenyl]methyl]triazol-4-yl]-6′-methyl-spiro[4,5-dihydrothieno[2,3-c]pyran-7,4′-piperidine]-4-ol], 50 to 500 nM. `C[C@H]1C[C@@]2(C[C@@H](c3cn(Cc4ccc(CO)cc4)nn3)N1)OCC(F)(F)c1cc(Cl)sc12` [Compound 225, (4-((4-((2S,4S,6S)-2′-chloro-4′,4′-difluoro-2-methyl-4′,5′-dihydrospiro[piperidine-4,7′-thieno[2,3-c]pyran]-6-yl)-1H-1,2,3-triazol-1-yl)methyl)phenyl)methanol]: the “Multi-Tox Assay Max Activity (%)” value is listed as 97.0% and the IC50 was in the range of 50 to 500 nM. On to `COCC(O)Cn1cc([C@@H]2C[C@]3(C[C@H](C)N2)OC[C@@H](O)c2cc(Cl)sc23)nn1` (stereo partly shown) [Compound 226], for which the “Multi-Tox Assay Max Activity (%)” value is given as 100.0% and the IC50 lay within 50 to 500 nM. For `C[C@H]1C[C@@]2(C[C@@H](c3cn(CC4CCCCO4)nn3)N1)OC[C@@H](O)c1cc(Cl)sc12` (stereo partly shown) [Compound 227] the same measures were 100.0% and 50 to 500 nM. Consider `C[C@H]1C[C@@]2(C[C@@H](c3cn(CCCS(C)(=O)=O)nn3)N1)OC[C@@H](O)c1cc(Cl)sc12` [Compound 228], for which the “Multi-Tox Assay Max Activity (%)” value was 100.0% and the IC50 was in the range of 50 to 500 nM.

`COCCOCCn1cc([C@@H]2C[C@]3(C[C@H](C)N2)OC[C@@H](O)c2cc(Cl)sc23)nn1` [Compound 229]: the “Multi-Tox Assay Max Activity (%)” value amounted to 98.0% and the IC50 was 50 to 500 nM. With `CC(C)C(=O)NCCn1cc([C@@H]2C[C@]3(C[C@H](C)N2)OC[C@@H](O)c2cc(Cl)sc23)nn1` [Compound 230], the “Multi-Tox Assay Max Activity (%)” value was 98.0% and the half-maximal inhibitory concentration (IC50) was 50 to 500 nM.

In the case of `C[C@H]1C[C@@]2(C[C@@H](c3cn(Cc4ccccc4S(C)(=O)=O)nn3)N1)OC[C@@H](O)c1cc(Cl)sc12` [Compound 231], the “Multi-Tox Assay Max Activity (%)” value was determined as 95.0% and the IC50 fell in the range of 50 to 500 nM. Taken in the same sequence, the figures for `C[C@H]1C[C@@]2(C[C@@H](c3cn(Cc4n[nH]c5ccccc45)nn3)N1)OC[C@@H](O)c1cc(Cl)sc12` [Compound 232] were 100.0% and below 50 nM. For `C[C@H]1C[C@@]2(C[C@@H](c3cn(CC4(O)CC4)nn3)N1)OC[C@@H](O)c1cc(Cl)sc12` [Compound 233] the same measures were 100.0% and 50 to 500 nM. For `C[C@H]1C[C@@]2(C[C@@H](c3cn(Cc4ncnc5[nH]ccc45)nn3)N1)OC[C@@H](O)c1cc(Cl)sc12` [Compound 234] the same measures were 100.0% and below 50 nM. On to `Cc1cc(C)nc(CCn2cc([C@@H]3C[C@]4(C[C@H](C)N3)OC[C@@H](O)c3cc(Cl)sc34)nn2)c1` [Compound 235], for which the “Multi-Tox Assay Max Activity (%)” value is 100.0% and the IC50 is below 50 nM. Taken in the same sequence, the figures for `C[C@H]1C[C@@]2(C[C@@H](c3cn(Cc4ccc(C#N)nc4)nn3)N1)OC[C@@H](O)c1cc(Cl)sc12` [Compound 236] were 100.0% and below 50 nM.

As to `Cc1noc(C)c1Cn1cc([C@@H]2C[C@]3(C[C@H](C)N2)OC[C@@H](O)c2cc(Cl)sc23)nn1` [Compound 237], the “Multi-Tox Assay Max Activity (%)” value was found to be 99.0% and the IC50 was below 50 nM. In the case of `C[C@H]1C[C@@]2(C[C@@H](c3cn(Cc4ccc(S(C)(=O)=O)cc4)nn3)N1)OC[C@@H](O)c1cc(Cl)sc12` [Compound 238], the half-inhibitory concentration (IC50) lay within 50 to 500 nM.

With `C[C@H]1C[C@@]2(C[C@@H](c3cn(CC(=O)N4CCCCC4)nn3)N1)OC[C@@H](O)c1cc(Cl)sc12` [Compound 239], the “Multi-Tox Assay Max Activity (%)” value stood at 97.0% and the IC50 was in the range of 50 to 500 nM.

Regarding `C[C@H]1C[C@@]2(C[C@@H](c3cn(CC4(CO)CCOCC4)nn3)N1)OC[C@@H](O)c1cc(Cl)sc12` [Compound 240], the “Multi-Tox Assay Max Activity (%)” value was found to be 95.0% and the IC50 was in the range of 50 to 500 nM. As to `C[C@H]1C[C@@]2(C[C@@H](c3cn(CCS(=O)(=O)Nc4ccccc4)nn3)N1)OC[C@@H](O)c1cc(Cl)sc12` [Compound 241], the IC90 lay within 50 to 500 nM, the “Multi-Tox Assay Max Activity (%)” value turned out to be 97.0% and the IC50 was below 50 nM. `C[C@H]1C[C@@]2(C[C@@H](c3cn(CC4(CO)CC4)nn3)N1)OC[C@@H](O)c1cc(Cl)sc12` [Compound 242]: the “Multi-Tox Assay Max Activity (%)” value is 97.0% and the IC50 was in the range of 50 to 500 nM. For `C[C@H]1C[C@@]2(C[C@@H](c3cn(Cc4cnc5cnccn45)nn3)N1)OC[C@@H](O)c1cc(Cl)sc12` [Compound 243] the same measures were 98.0% and 50 to 500 nM.

As for `C[C@H]1C[C@@]2(C[C@@H](c3cn(CCO)nn3)N1)OC[C@@H](O)c1cc(Cl)sc12` [Compound 244], the “Multi-Tox Assay Max Activity (%)” value is 100.0% and the IC50 was 50 to 500 nM.

Turning to `COc1ccc(Cn2cc([C@@H]3C[C@]4(C[C@H](C)N3)OC[C@@H](O)c3cc(Cl)sc34)nn2)cc1F` [Compound 245], the “Multi-Tox Assay Max Activity (%)” value was found to be 99.0% and the IC50 is below 50 nM. For `C[C@H]1C[C@@]2(C[C@@H](c3cn(C[C@@H](O)CO)nn3)N1)OC[C@@H](O)c1cc(Cl)sc12` [Compound 246] the same measures were 97.0% and 50 to 500 nM. In turn, `C[C@H]1C[C@@]2(C[C@@H](c3cn(CC(C)(C)O)nn3)N1)OC[C@@H](O)c1cc(Cl)sc12` [Compound 247] had an IC50 of 50 to 500 nM.

For `C[C@H]1C[C@@]2(C[C@@H](c3cn(Cc4cncs4)nn3)N1)OC[C@@H](O)c1cc(Cl)sc12` [Compound 248], the IC50 is below 50 nM. Turning to `C[C@H]1C[C@@]2(C[C@@H](c3cn(Cc4ccc5nc(O)[nH]c5c4)nn3)N1)OC[C@@H](O)c1cc(Cl)sc12` [Compound 249], the “Multi-Tox Assay Max Activity (%)” value is 92.0% and the IC50 fell in the range of 50 to 500 nM. For `C[C@H]1C[C@@]2(C[C@@H](c3cn(CC4CCC4)nn3)N1)OC[C@@H](O)c1cc(Cl)sc12` [Compound 250] the same measures were 95.0% and below 50 nM. For `Cc1nccn1CCCn1cc([C@@H]2C[C@]3(C[C@H](C)N2)OC[C@@H](O)c2cc(Cl)sc23)nn1` [Compound 251] the same measures were 99.0% and 50 to 500 nM. `C[C@H]1C[C@@]2(C[C@@H](c3cn(CCC(C)(C)O)nn3)N1)OC[C@@H](O)c1cc(Cl)sc12` [Compound 252]: the “Multi-Tox Assay Max Activity (%)” value is reported as 100.0% and the IC50 is below 50 nM.

Take `C[C@H]1C[C@@]2(C[C@@H](c3cn(Cc4ccc(C#N)cc4)nn3)N1)OC[C@@H](O)c1cc(Cl)sc12` [Compound 253]: the “Multi-Tox Assay Max Activity (%)” value worked out at 100.0% and the IC50 was below 50 nM. Taken in the same sequence, the figures for `C[C@H]1C[C@@]2(C[C@@H](c3cn(CC4CCC(=O)NC4)nn3)N1)OC[C@@H](O)c1cc(Cl)sc12` (stereo partly shown) [Compound 254] were 92.0% and above 500 nM. For `C[C@H]1C[C@@]2(C[C@@H](c3cn(CC#N)nn3)N1)OC[C@@H](O)c1cc(Cl)sc12` [Compound 255] the same measures were 100.0% and 50 to 500 nM. Take `CC(CO)Cn1cc([C@@H]2C[C@]3(C[C@H](C)N2)OC[C@@H](O)c2cc(Cl)sc23)nn1` (stereo partly shown) [Compound 256]: the “Multi-Tox Assay Max Activity (%)” value came to 96.0% and the IC50 is 50 to 500 nM. On to `CCOCCn1cc([C@@H]2C[C@]3(C[C@H](C)N2)OC[C@@H](O)c2cc(Cl)sc23)nn1` [Compound 257], for which the half-maximal inhibitory concentration (IC50) was below 50 nM. For `CNC(=O)C(C)Cn1cc([C@@H]2C[C@]3(C[C@H](C)N2)OC[C@@H](O)c2cc(Cl)sc23)nn1` (stereo partly shown) [Compound 258], the “Multi-Tox Assay Max Activity (%)” value is reported as 98.0% and the IC50 lay within 50 to 500 nM. As to `C[C@H]1C[C@@]2(C[C@@H](c3cn(Cc4ccc(O)cc4)nn3)N1)OC[C@@H](O)c1cc(Cl)sc12` [Compound 259], the “Multi-Tox Assay Max Activity (%)” value came to 100.0% and the IC50 was in the range of 50 to 500 nM. As for `Cc1cccc(OCC(O)Cn2cc([C@@H]3C[C@]4(C[C@H](C)N3)OC[C@@H](O)c3cc(Cl)sc34)nn2)c1` (stereo partly shown) [Compound 260], the “Multi-Tox Assay Max Activity (%)” value turned out to be 99.0% and the IC50 is below 50 nM.
